Inhibition and IC50 data for 18 compounds are collected here from patent publication US9474758B2, “Thienopyrimidinedione derivatives as TRPA1 modulators” (Glenmark Pharmaceuticals S.A., priority 2009, dated 2016).

Read-outs that look alike come from different tables or passages of the source.

The target in assay [1] is T1, Rat TRPA1 expressing CHO cells (Rattus norvegicus, UniProt Q6RI86).
T1 construct: expressed in transfected cells; host or cells: CHO cells (Zeocin selection)
Nature of the assay: 45Calcium uptake assay, inhibition of AITC induced calcium uptake (rat). It counts as cell-based. Conditions: for inhibition at 1 µM: read-out: Percentage inhibition at 1.0 μM; for inhibition at 10 µM: read-out: Percentage inhibition at 10.0 μM; for IC50: read-out: Rat IC50 value (Range). The method, then:
(§1) Screening for TRPA1 Antagonist Using the ^45Calcium Uptake Assay:
(§2) The inhibition of TRPA1 receptor activation was measured as inhibition of allyl isothiocyanate (AITC) induced cellular uptake of radioactive calcium.
(§3) Test compounds were dissolved in 100% DMSO to prepare 10 mM stock and then diluted using plain medium with 0.1% BSA and 1.8 mM CaCl2 to get the desired concentration. The final concentration of DMSO in the reaction was 0.5% (v/v). […] Rat TRPA1 expressing CHO cells were grown in F-12 DMEM medium with 10% FBS, 1% penicillin-streptomycin solution, and 400 μg/ml of Zeocin. […] Cells were treated with the test compounds for 10 minutes followed by the addition of AITC at a final concentration of 30 μM (for human TRPA1) and/or 10 μM (for rat TRPA1) and 5 μCi/ml ^45Ca^+2 for 3 minutes. Cells were washed and lysed using a buffer containing 1% Triton X-100, 0.1% deoxycholate and 0.1% SDS. Radioactivity in the lysate was measured in a Packard TopCount after addition of liquid scintillant.
(§4) Concentration response curves were plotted as a % of maximal response obtained in the absence of test antagonist. IC50 values can be calculated from concentration response curve by nonlinear regression analysis using GraphPad PRISM software.

Assay [2] deals with T2, Human TRPA1 expressing CHO cells (Homo sapiens, UniProt O75762).
T2 construct: expressed in transfected cells; host or cells: CHO cells (G-418 selection)
Nature of the assay: 45Calcium uptake assay, inhibition of AITC induced calcium uptake (human). Conditions: for inhibition at 1 µM: read-out: Percentage inhibition at 1.0 μM; for inhibition at 10 µM: read-out: Percentage inhibition at 10.0 μM. The class given is cell-based. The method, then:
as §1, §2, §3, §4

The mark [3] stands for this setting: rat TRPA1 CHO cells, AITC 10 μM, compound 1.0 μM.
[4] abbreviates: rat TRPA1 CHO cells, AITC 10 μM, compound 10.0 μM.
[5] abbreviates: rat TRPA1 CHO cells, AITC 10 μM.
Where [6] appears, read: human TRPA1 CHO cells, AITC 30 μM, compound 1.0 μM.
The mark [7] stands for this setting: human TRPA1 CHO cells, AITC 30 μM, compound 10.0 μM.
Setting [8] is: human TRPA1 CHO cells, AITC 30 μM, read-out: Human IC50 value (Range).

T1 sequence (Q6RI86 whole entry): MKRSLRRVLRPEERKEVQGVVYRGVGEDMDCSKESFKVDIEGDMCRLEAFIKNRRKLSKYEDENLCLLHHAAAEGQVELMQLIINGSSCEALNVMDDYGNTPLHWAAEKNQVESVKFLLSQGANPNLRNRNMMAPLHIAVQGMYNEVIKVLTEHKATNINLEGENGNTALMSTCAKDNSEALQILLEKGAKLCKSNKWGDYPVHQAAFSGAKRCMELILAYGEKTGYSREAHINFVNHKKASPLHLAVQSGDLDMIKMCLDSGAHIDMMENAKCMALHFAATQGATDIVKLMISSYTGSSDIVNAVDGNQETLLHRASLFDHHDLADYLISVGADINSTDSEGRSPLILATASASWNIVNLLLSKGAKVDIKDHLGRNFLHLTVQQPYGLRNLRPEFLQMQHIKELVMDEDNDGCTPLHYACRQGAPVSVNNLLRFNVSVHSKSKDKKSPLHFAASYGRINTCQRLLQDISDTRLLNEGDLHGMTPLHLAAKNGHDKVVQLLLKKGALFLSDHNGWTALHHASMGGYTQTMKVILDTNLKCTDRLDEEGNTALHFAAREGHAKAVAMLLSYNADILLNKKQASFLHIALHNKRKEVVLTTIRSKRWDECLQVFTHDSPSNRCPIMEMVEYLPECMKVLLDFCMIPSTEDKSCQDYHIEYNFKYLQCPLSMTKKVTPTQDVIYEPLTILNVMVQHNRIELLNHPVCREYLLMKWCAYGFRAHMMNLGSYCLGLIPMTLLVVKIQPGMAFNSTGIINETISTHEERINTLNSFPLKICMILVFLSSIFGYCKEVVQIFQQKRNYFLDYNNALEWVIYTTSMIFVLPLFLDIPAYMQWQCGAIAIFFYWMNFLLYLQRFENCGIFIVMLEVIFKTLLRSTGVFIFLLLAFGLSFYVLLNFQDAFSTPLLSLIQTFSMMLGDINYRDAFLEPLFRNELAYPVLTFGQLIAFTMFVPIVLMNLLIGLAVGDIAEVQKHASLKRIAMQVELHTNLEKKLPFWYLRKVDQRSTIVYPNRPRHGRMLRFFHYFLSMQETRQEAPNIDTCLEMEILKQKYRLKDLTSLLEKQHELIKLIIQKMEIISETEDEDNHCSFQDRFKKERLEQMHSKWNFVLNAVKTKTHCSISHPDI
T2 sequence (O75762 whole entry): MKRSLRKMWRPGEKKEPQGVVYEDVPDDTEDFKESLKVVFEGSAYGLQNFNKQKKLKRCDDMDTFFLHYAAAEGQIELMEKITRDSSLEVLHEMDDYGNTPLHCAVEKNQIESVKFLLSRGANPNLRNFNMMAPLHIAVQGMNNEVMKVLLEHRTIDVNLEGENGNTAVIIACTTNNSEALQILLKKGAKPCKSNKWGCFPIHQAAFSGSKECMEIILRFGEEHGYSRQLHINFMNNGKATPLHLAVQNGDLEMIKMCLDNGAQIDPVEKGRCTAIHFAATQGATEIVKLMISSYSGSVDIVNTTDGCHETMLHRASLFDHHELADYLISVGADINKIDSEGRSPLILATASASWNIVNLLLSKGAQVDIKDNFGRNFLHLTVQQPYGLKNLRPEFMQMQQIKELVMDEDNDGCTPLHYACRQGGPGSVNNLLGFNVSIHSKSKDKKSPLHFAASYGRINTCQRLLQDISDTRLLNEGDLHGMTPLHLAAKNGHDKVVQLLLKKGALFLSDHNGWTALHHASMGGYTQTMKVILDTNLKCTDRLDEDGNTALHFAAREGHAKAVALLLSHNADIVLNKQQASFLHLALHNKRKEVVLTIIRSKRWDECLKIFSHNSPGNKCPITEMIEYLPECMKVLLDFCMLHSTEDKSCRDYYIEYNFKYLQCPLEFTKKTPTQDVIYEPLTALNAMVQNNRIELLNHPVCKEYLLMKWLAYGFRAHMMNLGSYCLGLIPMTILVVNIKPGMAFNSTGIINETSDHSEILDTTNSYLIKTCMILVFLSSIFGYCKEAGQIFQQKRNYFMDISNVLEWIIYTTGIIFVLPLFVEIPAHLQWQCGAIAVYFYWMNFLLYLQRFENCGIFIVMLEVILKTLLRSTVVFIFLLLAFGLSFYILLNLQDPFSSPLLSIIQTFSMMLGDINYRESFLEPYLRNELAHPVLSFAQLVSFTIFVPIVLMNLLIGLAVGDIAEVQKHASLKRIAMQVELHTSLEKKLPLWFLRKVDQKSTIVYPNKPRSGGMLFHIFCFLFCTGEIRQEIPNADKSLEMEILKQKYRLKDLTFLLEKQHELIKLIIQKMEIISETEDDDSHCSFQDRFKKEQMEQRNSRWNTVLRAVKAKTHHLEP

As usually defined, the inhibition is the share of the control response that was lost under treatment. By IC50 is commonly meant the point on the concentration scale where inhibition reaches its midpoint. Regarding `CCc1sc2c(c1CC(=O)Nc1nc(-c3ccc(F)c(C(F)(F)F)c3F)cs1)c(=O)n(C)c(=O)n2C` [Example 32], the inhibition at 1 µM was determined as 99.9% in assay [1] (setting [3]) and 99.2% in assay [2] (setting [6]). The inhibition at 10 µM is 98.8% in assay [1] (setting [4]) and 99.3% in assay [2] (setting [7]). For the same compound, the IC50 in assay [1] (setting [5]) and in assay [2] (setting [8]) was less than 0.05 µM throughout.

Consider `Cn1c(=O)c2c(CC(=O)Nc3nc(-c4ccc(F)c(C(F)(F)F)c4F)cs3)scc2n(C)c1=O` [Example 57, N-{4-[2,4-Difluoro-3-(trifluoromethyl)phenyl]-1,3-thiazol-2-yl}-2-(1,3-dimethyl-2,4-dioxo-1,2,3,4-tetrahydrothieno[3,4-d]pyrimidin-5-yl)acetamide], for which the inhibition at 1 µM in assay [1] (setting [3]) came out at 97%; in assay [2] (setting [6]), 96.9%. The inhibition at 10 µM was determined as 100% in assay [1] (setting [4]) and 91% in assay [2] (setting [7]). For the same compound, the IC50 in assay [1] (setting [5]) and in assay [2] (setting [8]) was less than 0.05 µM throughout.

On to `Cn1c(=O)c2c(CC(=O)Nc3nc(-c4ccc(Cl)c(Cl)c4)cs3)csc2n(C)c1=O` [Example 12, N-[4-(3,4-Dichlorophenyl)-1,3-thiazol-2-yl]-2-(1,3-dimethyl-2,4-dioxo-1,2,3,4-tetrahydrothieno[2,3-d]pyrimidin-5-yl)acetamide], for which the inhibition at 1 µM in assay [1] (setting [3]) was 97.8%; in assay [2] (setting [6]), 99.7%. The inhibition at 10 µM was 100% in assay [1] (setting [4]) and 99.8% in assay [2] (setting [7]). Also, the IC50 is 0.05 to 0.5 µM in assay [1] (setting [5]) and less than 0.05 µM in assay [2] (setting [8]).

For the compound `Cc1sc2c(c1CC(=O)Nc1nc(-c3ccc(C(C)(C)C)cc3)cs1)c(=O)n(C)c(=O)n2C` [Example 17, N-[4-(4-tert-Butylphenyl)-1,3-thiazol-2-yl]-2-(1,3,6-trimethyl-2,4-dioxo-1,2,3,4-tetrahydrothieno[2,3-d]pyrimidin-5-yl)acetamide], the inhibition at 1 µM in assay [1] (setting [3]) turned out to be 93.1%; in assay [2] (setting [6]), 97.5%. For the same compound, the inhibition at 10 µM in assay [1] (setting [4]) worked out at 99.2%; in assay [2] (setting [7]) it was 98.8%. In addition, the half-inhibitory concentration (IC50) in assay [1] (setting [5]) and in assay [2] (setting [8]) was 0.05 to 0.5 µM in each case.

Consider `Cn1c(=O)c2c(CC(=O)Nc3nc(-c4ccc(F)c(C(F)(F)F)c4F)cs3)csc2n(C)c1=O` [Example 13, N-{4-[2,4-Difluoro-3-(trifluoromethyl)phenyl]-1,3-thiazol-2-yl}-2-(1,3-dimethyl-2,4-dioxo-1,2,3,4-tetrahydrothieno[2,3-d]pyrimidin-5-yl)acetamide], for which the 50% inhibitory concentration (IC50) in assay [1] (setting [5]) and in assay [2] (setting [8]) was less than 0.05 µM in each case. Further, the inhibition at 1 µM in assay [2] (setting [6]) is 98.2%. For the same compound, the inhibition at 10 µM in assay [2] (setting [7]) came to 98.1%.

In the case of `Cn1c(=O)c2c(CC(=O)Nc3nc(C(F)(F)F)cs3)csc2n(C)c1=O` [Example 1, 2-(1,3-Dimethyl-2,4-dioxo-1,2,3,4-tetrahydrothieno[2,3-d]pyrimidin-5-yl)-N-[4-(trifluoromethyl)-1,3-thiazol-2-yl]acetamide], the inhibition at 1 µM in assay [2] (setting [6]) is 13.2%. In addition, the inhibition at 10 µM in assay [2] (setting [7]) came to 46%.

As to `Cc1sc2c(c1CC(=O)Nc1nc(-c3ccc(OC(F)(F)F)c(F)c3)cs1)c(=O)n(C)c(=O)n2C` [Example 26, N-{4-[3-Fluoro-4-(trifluoromethoxy)phenyl]-1,3-thiazol-2-yl}-2-(1,3,6-trimethyl-2,4-dioxo-1,2,3,4-tetrahydrothieno[2,3-d]pyrimidin-5-yl)acetamide], the figures for the inhibition at 1 µM in assay [1] (setting [3]) and in assay [2] (setting [6]) were 98.2% and 100%, respectively. In addition, the inhibition at 10 µM came out at 98.1% in assay [1] (setting [4]) and 100% in assay [2] (setting [7]). Further, the values for the IC50 in assay [1] (setting [5]) and in assay [2] (setting [8]) were 0.05 to 0.5 µM and less than 0.05 µM, respectively.

Turning to `Cn1c(=O)c2c(CC(=O)Nc3nc(-c4ccc(C(F)(F)F)cc4F)cs3)csc2n(C)c1=O` [Example 7, 2-(1,3-Dimethyl-2,4-dioxo-1,2,3,4-tetrahydrothieno[2,3-d]pyrimidin-5-yl)-N-{4-[2-fluoro-4-(trifluoromethyl)phenyl]-1,3-thiazol-2-yl}acetamide], in assay [1] (CHO), the inhibition at 1 µM worked out at 26.6% and the inhibition at 10 µM was determined as 100%. Besides, in assay [2], the IC50 is less than 0.05 µM. In assay [2] (CHO), the inhibition at 1 µM stood at 80.4% and the inhibition at 10 µM was found to be 99.8%.

Consider `Cn1c(=O)c2c(CC(=O)Nc3ccn(-c4ccc(Br)cc4)n3)csc2n(C)c1=O` [Example 40, N-[1-(4-Bromophenyl)-1H-pyrazol-3-yl]-2-(1,3-dimethyl-2,4-dioxo-1,2,3,4-tetrahydrothieno[2,3-d]pyrimidin-5-yl)acetamide], for which the inhibition at 1 µM in assay [2] (setting [6]) worked out at 99.9%. Moreover, in assay [2] (setting [7]), the inhibition at 10 µM worked out at 100%. For the same compound, the IC50 in assay [2] (setting [8]) was less than 0.05 µM.

`Cn1c(=O)c2c(CC(=O)Nc3nc(-c4ccc(Cl)cc4)cs3)scc2n(C)c1=O` [Example 45, N-[4-(4-Chlorophenyl)-1,3-thiazol-2-yl]-2-(1,3-dimethyl-2,4-dioxo-1,2,3,4-tetrahydrothieno[3,4-d]pyrimidin-5-yl)acetamide]: the inhibition at 1 µM in assay [1] (setting [3]) was 66.2%; in assay [2] (setting [6]), 94%. In addition, the inhibition at 10 µM in assay [1] (setting [4]) turned out to be 94.8%; in assay [2] (setting [7]), 98.9%. The half-maximal inhibitory concentration (IC50) in assay [2] (setting [8]) was 0.05 to 0.5 µM.

In the case of `Cn1c(=O)c2c(CC(=O)Nc3cc(-c4ccc(Cl)cc4)no3)csc2n(C)c1=O` [Example 38, N-[3-(4-Chlorophenyl)isoxazol-5-yl]-2-(1,3-dimethyl-2,4-dioxo-1,2,3,4-tetrahydrothieno[2,3-d]pyrimidin-5-yl)acetamide], in assay [2] (setting [6]), the inhibition at 1 µM is 25%. In addition, the inhibition at 10 µM in assay [2] (setting [7]) stood at 87.9%.

As for `CC(C)Cc1ccc(-c2csc(NC(=O)Cc3csc4c3c(=O)n(C)c(=O)n4C)n2)cc1` [Example 4, 2-(1,3-Dimethyl-2,4-dioxo-1,2,3,4-tetrahydrothieno[2,3-d]pyrimidin-5-yl)-N-[4-(4-isobutylphenyl)-1,3-thiazol-2-yl]acetamide], the inhibition at 1 µM in assay [2] (setting [6]) stood at 29.1%. The inhibition at 10 µM in assay [2] (setting [7]) stood at 99.5%.

In the case of `Cc1sc2c(c1CC(=O)Nc1nc(-c3ccc(C(F)(F)F)c(F)c3)c[nH]1)c(=O)n(C)c(=O)n2C` [Example 29, N-{4-[3-Fluoro-4-(trifluoromethyl)phenyl]-1H-imidazol-2-yl}-2-(1,3,6-trimethyl-2,4-dioxo-1,2,3,4-tetrahydrothieno[2,3-d]pyrimidin-5-yl)acetamide], in assay [2] (setting [6]), the inhibition at 1 µM worked out at 91.7%. For the same compound, in assay [2] (setting [7]), the inhibition at 10 µM was 98%. Moreover, in assay [2] (setting [8]), the half-inhibitory concentration (IC50) was 0.05 to 0.5 µM.

In the case of `Cn1c(=O)c2c(CC(=O)Nc3cc(-c4ccc(Br)cc4)on3)csc2n(C)c1=O` [Example 39, N-[5-(4-Bromophenyl)isoxazol-3-yl]-2-(1,3-dimethyl-2,4-dioxo-1,2,3,4-tetrahydrothieno[2,3-d]pyrimidin-5-yl)acetamide], in assay [2] (setting [6]), the inhibition at 1 µM stood at 47.8%. Also, the inhibition at 10 µM in assay [2] (setting [7]) was determined as 78.6%.

`Cn1c(=O)c2c(CC(=O)Nc3nc(-c4ccc(C(F)(F)F)c(F)c4F)cs3)csc2n(C)c1=O` [Example 15, N-{4-[2,3-Difluoro-4-(trifluoromethyl)phenyl]-1,3-thiazol-2-yl}-2-(1,3-dimethyl-2,4-dioxo-1,2,3,4-tetrahydrothieno[2,3-d]pyrimidin-5-yl)acetamide]: in assay [2] (setting [6]), the inhibition at 1 µM was 60%. In assay [2] (setting [7]), the inhibition at 10 µM came out at 96.8%.

As to `Cn1c(=O)c2c(CC(=O)Nc3nccc(-c4ccc(Br)cc4)n3)csc2n(C)c1=O` [Example 43, N-[4-(4-Bromophenyl)pyrimidin-2-yl]-2-(1,3-dimethyl-2,4-dioxo-1,2,3,4-tetrahydrothieno[2,3-d]pyrimidin-5-yl)acetamide], the inhibition at 1 µM in assay [2] (setting [6]) amounted to 30.5%. Further, the inhibition at 10 µM in assay [2] (setting [7]) was found to be 4.42%.

As to `Cn1c(=O)c2c(CC(=O)Nc3nnc(-c4ccc(Br)cc4)s3)csc2n(C)c1=O` [Example 42, N-[5-(4-Bromophenyl)-1,3,4-thiadiazol-2-yl]-2-(1,3-dimethyl-2,4-dioxo-1,2,3,4-tetrahydrothieno[2,3-d]pyrimidin-5-yl)acetamide], the inhibition at 1 µM in assay [2] (setting [6]) came to 9.74%. Besides, the inhibition at 10 µM in assay [2] (setting [7]) amounted to 74.6%.

`Cc1sc2c(c1CC(=O)Nc1nc(-c3cccc(OC(F)(F)F)c3)c[nH]1)c(=O)n(C)c(=O)n2C` [Example 28, N-[4-(3-Trifluoromethoxyphenyl)-1H-imidazol-2-yl]-2-(1,3,6-trimethyl-2,4-dioxo-1,2,3,4-tetrahydrothieno[2,3-d]pyrimidin-5-yl)acetamide]: in assay [2] (setting [6]), the inhibition at 1 µM was found to be 10%. In addition, the inhibition at 10 µM in assay [2] (setting [7]) came to 46.8%.
